Data as given in patent US20250276081A1, “Mucin-Active Proteases and Methods of Use” (priority 2022, published 2025).

What was measured:
[1] = tested on: MCF10A cells expressing MUC1 ectodomain; experiment: MCF10A^MUC1 suspension survival assay; format: cell-based
Protocol: MCF10A^MUC1 suspension survival assay. MCF10A cells expressing a cytoplasmic truncation 5 of MUC1 (MUC1ΔCT, also referred to as MUC1 ectodomain) were used to limit any possible cytoplasmic signaling^1. MUC1ΔCT was induced with 200 ng/ml doxycycline for 24 h. Uninduced and induced cells were seeded at 3×10^5 cells/well in a 24-well ultra-low attachment plate (Corning) in 0.75 mL of complete media. 200 ng/mL doxycycline and 10 nM StcE were added as appropriate. The plate was incubated at 37° C., 5% CO2, 125 rpm. At t=0, 24, 48, and 72 h, cells were spun down at 350×g for 5 min, resuspended in 200 μL of phosphate-buffered saline (PBS) with 0.1% benzonase (Sigma-Aldrich), and incubated at room temperature for 15 min. Cells were then resuspended in 200 μL of enzyme-free cell dissociation buffer (Thermo Fisher Scientific) and stained with 100 nM Calcein AM (Thermo Fisher Scientific) and 5 nM Sytox Red Dead Cell Stain (Thermo Fisher Scientific) for 20 min at 4° C., prior to analysis using a BD Accuri C6 plus. Videos of MCF10A^MUC1 cells freshly seeded on standard tissue culture plates (Corning) and treated with and without 1 nM StcE were generated with images taken at 30 min intervals for 18 h using an Incucyte. The Incucyte was set to 37° C. and 5% CO2, and cells were incubated in complete media with 200 ng/ml doxycycline.

[2] = tested on: Siglec-7 ligand (K562, CCRF-CEM, CCRF-HSB-2 cells); experiment: Siglec-7-Fc flow cytometry of leukemia cell lines; format: cell-based; settings: 50 nM StcE, 1 h
Protocol: CD43 and Siglec-7-Fc flow cytometry. 1×10^6 K562, CCRF-CEM, or CCRF-HSB-2 cells growing in log phase were harvested, resuspended in 1 mL of serum-free RPMI, and treated with either vehicle or 50 nM StcE for 1 h. Cells were subsequently spun down at 600× g and washed twice in PBS. Cells were then resuspended in FACS buffer (0.5% BSA in PBS) at 1×10^6 cells/mL and aliquoted into a V-bottom 96-well plate (Corning) at 1×10^5 cells/well. For staining, a precomplex solution of 1 μg/mL Siglec-7-Fc (R&D Systems) and 1 μg/mL Alexa Fluor 488-antihFc was made up in FACS buffer and incubated on ice for 1 h. Alexa Fluor 647 CD43/sialophorin antibody (MEM-59 clone) (Novus Biologicals) was subsequently added to the precomplex solution prior to staining. Cells were stained in 100 μL of staining solution for 30 min, washed twice with FACS buffer, and analyzed by flow cytometry using a BD Accuri C6 plus.

[3] = In vivo biodistribution of IRdye 800CW-labeled StcE; settings: 0.25 mg/kg I.P.

StcE: secreted protease of C1 esterase inhibitor, zinc metalloprotease pan mucinase from E. coli O157:H7; SEQ ID NO:1
Viability of MUC1-overexpressing cells under anchorage-free conditions ([1]; 10 nM StcE, ultralow attachment plates, over 72 h): rapid cell death
Toxicity to MUC1-expressing cells in standard tissue culture plates ([1]; nanomolar doses (1 nM StcE)): low toxicity
Siglec-7 ligand residency [2]: loss of cell surface CD43 and overall Siglec-7 ligand residency
Time remaining in circulation [3]: at least 20 hours
